Measurements: patent US6436925B1, “Substituted benzamides, their production and their use as cysteine protease inhibitors” (Abbott Laboratories, priority 1998, dated 2002)

Target: T1, calpain I (human μ-calpain) (Homo sapiens, UniProt P07384)
T1 construct: Human μ-calpain is isolated from erythrocytes; from tissue; host or cells: human erythrocytes
T1 sequence (P07384 1-714): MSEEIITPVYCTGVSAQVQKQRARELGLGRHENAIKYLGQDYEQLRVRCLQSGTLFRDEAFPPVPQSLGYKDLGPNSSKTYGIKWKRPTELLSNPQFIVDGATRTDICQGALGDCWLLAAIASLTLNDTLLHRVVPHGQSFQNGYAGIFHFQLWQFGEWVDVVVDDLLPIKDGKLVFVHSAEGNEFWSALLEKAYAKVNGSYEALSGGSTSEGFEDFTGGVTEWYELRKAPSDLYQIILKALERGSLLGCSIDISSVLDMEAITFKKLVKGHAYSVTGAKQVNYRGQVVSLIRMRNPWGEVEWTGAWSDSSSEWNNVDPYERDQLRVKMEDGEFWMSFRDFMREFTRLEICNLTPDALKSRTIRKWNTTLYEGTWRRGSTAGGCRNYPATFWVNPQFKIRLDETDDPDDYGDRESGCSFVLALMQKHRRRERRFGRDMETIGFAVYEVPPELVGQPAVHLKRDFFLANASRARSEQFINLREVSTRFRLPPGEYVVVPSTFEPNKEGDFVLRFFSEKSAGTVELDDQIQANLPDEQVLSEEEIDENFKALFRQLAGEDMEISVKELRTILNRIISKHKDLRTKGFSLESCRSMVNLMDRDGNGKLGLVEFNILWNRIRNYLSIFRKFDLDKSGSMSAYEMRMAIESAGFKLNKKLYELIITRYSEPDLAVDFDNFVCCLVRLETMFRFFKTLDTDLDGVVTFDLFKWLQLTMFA
T1 sequence (P04632 1-268 partner): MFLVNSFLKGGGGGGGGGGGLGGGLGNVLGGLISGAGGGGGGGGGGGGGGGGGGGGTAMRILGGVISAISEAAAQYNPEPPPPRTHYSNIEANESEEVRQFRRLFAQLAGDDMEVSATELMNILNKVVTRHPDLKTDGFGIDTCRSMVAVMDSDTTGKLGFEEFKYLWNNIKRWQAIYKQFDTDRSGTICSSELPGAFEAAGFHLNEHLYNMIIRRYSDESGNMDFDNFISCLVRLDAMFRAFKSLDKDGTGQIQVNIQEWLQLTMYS
Experiment: Calpain I and II assay (fluorogenic substrate Suc-Leu-Tyr-AMC)
Format: biochemical
Description: The inhibitory effect of the benzamides I has been determined using enzyme assays known from the literature, determining as criterion of effect a concentration of the inhibitor at which 50% of the enzyme activity is inhibited (=IC50). The amides I were measured in this way for their inhibitory effect on calpain I, calpain II and cathepsin B.
The testing of the inhibitory properties of calpain inhibitors takes place in buffer with 50 mM tris-HCl, pH 7.5; 0.1 M NaCl; 1 mM dithiotreithol [sic]; 0.11 mM CaCl2, using the fluorogenic calpain substrate Suc-Leu-Tyr-AMC (25 mM dissolved in DMSO, Bachem/switzerland). Human μ-calpain is isolated from erythrocytes, and enzyme with a purity >95%, assessed by SDS-PAGE, Western blot analysis and N-terminal sequencing, is obtained after more [sic] chromatographic steps (DEAE-Sepharose, phenyl-Sepharose, Superdex 200 and blue Sepharose). The fluorescence of the cleavage product 7-amino-4-methylcoumarin (AMC) is followed in a Spex Fluorolog fluorimeter at λex=380 nm and λem =460 nm. […]
In a test mixture, 10 μl of substrate (250 μM final) and then 10 μl of μ-calpain (2 μg/ml final, i.e. 18 nM) are added to a 1 ml cuvette containing buffer. The calpain-mediated cleavage of the substrate is measured for from 15 to 20 min. […] Ki values are determined using the classical equation for reversible inhibition: […]

inhibition at 1 µM (at a concentration of 1 μM): > 50%
Ki (calpain I, inferred from more than 50% inhibition at 1 μM): < 1 µM
Compound: O=C(N[C@@H](Cc1ccccc1)C(=O)CNS(=O)(=O)c1ccccc1)c1cccc(NS(=O)(=O)c2ccc3ccccc3c2)c1 [Example 1, 3(2-Naphthylsulfonamido)-N(3(S)-4-phenyl-1-phenylsulfonamidobutan-2-on-3-yl)benzamide]
